# Where no end group is shown, it is not given here.
# What was measured:
# AKT-PKAc complex = AKT-PKAc complex (Mus musculus, UniProt P31750); assay: Co-immunoprecipitation of AKT-PKAc complex in N2a cells; assay type: cell-based; parameters: Neuroblastoma 2a (N2a) neurons expressing an endogenous level of AKT and PKAc; endogenous in cells; host or cells: N2a neuroblastoma cells; details: 24-hour treatment
# Description: Accordingly, the stability and phenotypic consequences of the AKT-PKAc complex was also analyzed in cultured neurons. N2a cells were treated with vehicle, ZaTa or control peptide for 24 hours. Media was removed after the 24-hour treatment and an equal number of cells from each treatment group was either cultured for another 24 hours without treatment, or lysed and subjected to immunoprecipitation with an antibody against AKT. Those cells cultured for another 24 hours were also harvested and subjected to immunoprecipitation. In parallel, the number of individual neurons with neurites was counted. […] Live images of N2a neurons were captured following treatment with vehicle or ZaTa (2 or 5 μM). […] ZaTa-mediated changes included a progressive loss of neurites, inhibition of new neurite formation, loss of cell motility, as well as formation of large cell colonies.
# SGK = target: T1, SGK (Homo sapiens, UniProt O00141); assay: In vitro kinase assay SGK; assay type: biochemical; details: ten times higher concentration than 0.1 μM
# T1 construct: endogenous in cells
# T1 sequence (O00141 1-431): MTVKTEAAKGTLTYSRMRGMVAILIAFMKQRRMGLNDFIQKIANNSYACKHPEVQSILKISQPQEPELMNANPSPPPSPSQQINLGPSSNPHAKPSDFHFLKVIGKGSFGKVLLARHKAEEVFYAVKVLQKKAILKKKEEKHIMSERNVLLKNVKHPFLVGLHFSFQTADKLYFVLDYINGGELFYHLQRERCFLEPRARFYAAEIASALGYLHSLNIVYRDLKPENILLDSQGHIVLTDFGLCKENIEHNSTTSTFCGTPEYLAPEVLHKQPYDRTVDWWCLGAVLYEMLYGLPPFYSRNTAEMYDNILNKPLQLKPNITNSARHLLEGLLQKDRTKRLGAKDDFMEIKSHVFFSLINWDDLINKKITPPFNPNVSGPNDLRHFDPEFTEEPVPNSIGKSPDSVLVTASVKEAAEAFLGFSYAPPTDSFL
# Description: As a specific substrate, the phosphorylation level of GSK-3[…] at Ser-9 was also evaluated. […] The decrease was specific to the AKT phosphorylation site on GSK-3[…] at Ser-9, since a change in the phosphorylation level of GSK-3[…] at Tyr-216 or GSK-3[…] at Tyr-279 was not observed. Moreover, the in vivo reduction of the phosphorylation of AKT substrates was more obvious at the injection site, since a significant change in the phosphorylation of AKT substrates in the frontal cortex or cerebellum between the two hemispheres was not observed. […] To test the specificity/selectivity of ZaTa as the inhibitor of AKT1 versus the other major kinases, a series of in vitro kinase assays was performed at IC50 for AKT1 and at ten times higher concentrations. A panel of the following 32 kinases was first tested in vitro using the active form of each kinase and a specific substrate: AKT2, AKT3, PKA, PKC[…], PKC, PI3K[…], PI3K[…], PI3K, SGK, PAK2, PAK3, SAPK2/p38, Abl, CaMKII, CDK1/cyclinB, CDK5/p35, CK1, CK2, CSK, GSK3[…], GSK3[…], JNK1[…]1, MAPK1, p70S6K, PDGFR[…], PDGFR[…], PDK1, PKG1[…], TrkB, JAK2, JAK3, and Syk. […] However, at ten times higher concentration, ZaTa inhibited AKT2 (63%), PI3K[…] (72%), p70S6K (64%), SGK (73%), PAK3 (83%), JAK3 (79%), TrkB (84%), and Abl (42%). […]
# AKT = assay: Western blot of AKT substrate phosphorylation in N2a cells; assay type: cell-based; details: different doses
# Description: AKT affects a network that positively regulates G1/S cell cycle progression through several mechanisms that involve the expression and subcellular localization of the CDK inhibitor p27^Kip1 (Blain and Massague (2002) Nat. Med. 8:1076-1078; Liang, et al. (2002) supra; Shin, et al. (2002) supra; Viglietto, et al. (2002) supra). Based on these studies, the effect of ZaTa peptide on cell proliferation was assessed. […] Capturing live images of cultured N2a cells in the presence of different concentrations of the ZaTa peptide confirmed an obvious reduction in the number of dividing cells.
# N2a cells were cultured in Dulbecco's Modified Eagle's Medium (DMEM) and OPTI-MEM® media (50% of each; GIBCO-BRL, Gaithersberg, Md.) supplemented with 5% fetal bovine serum (FBS; SIGMA, St. Louis, Mo.), penicillin-streptomycin and L-Glutamine (GIBCO-BRL). […] Protein concentration was measured using a commercially available protein assay (BIO-RAD, […].) protein assay and spectrometry at 595 Å. […] The membrane was probed with primary and secondary antibodies and signals were detected by chemiluminescence followed by autoradiography.
# Chain of AKT-PKAc complex (P31750 whole entry, one chain of several): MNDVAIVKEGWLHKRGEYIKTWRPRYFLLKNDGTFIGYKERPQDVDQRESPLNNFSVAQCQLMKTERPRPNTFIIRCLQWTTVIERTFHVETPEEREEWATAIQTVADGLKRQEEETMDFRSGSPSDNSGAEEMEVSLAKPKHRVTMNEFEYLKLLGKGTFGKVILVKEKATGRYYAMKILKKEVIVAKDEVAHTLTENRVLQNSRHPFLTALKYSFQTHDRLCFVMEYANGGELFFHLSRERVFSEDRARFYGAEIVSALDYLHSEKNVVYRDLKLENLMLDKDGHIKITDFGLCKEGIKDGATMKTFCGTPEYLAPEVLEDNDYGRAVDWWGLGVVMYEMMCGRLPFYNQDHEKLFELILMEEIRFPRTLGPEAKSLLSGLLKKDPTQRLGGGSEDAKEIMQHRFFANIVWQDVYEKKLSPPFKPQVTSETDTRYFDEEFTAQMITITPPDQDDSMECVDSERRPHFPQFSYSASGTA
sequence,measurement,setting,value
AKRVKGRTWTLCGTPEY [ZaTa],"amount of PKAc in physical contact with AKT, N2a cells",AKT-PKAc complex,reduced the amount of PKAc in physical contact with AKT
same,inhibition of SGK,SGK,73%
same,phosphorylation level of AKT substrates in N2a cells,AKT,concomitant decrease

# — US8541670B2, “Compositions and methods for inhibiting tumor cell growth” (priority 2007, dated 2013)
